# Columns and labels:
# Assay in all cases: Activity of purified MMP on substrate (reporter release)
# [1] = target: T1, MMP8 (Homo sapiens, UniProt P22894); assay type: biochemical
# T1 construct: purchased Calbiochem
# Description: In order to confirm the specificity of the substrates for various MMPs, standard enzymatic assays were adapted to monitor the release of reporter. The reporter was either analysed by a LC-MS method as described in Example 3a, or by a LC-UV method as described in Example 4. Purified pro-MMP8 is purchased from Calbiochem. The enzyme (at 10 μg/ml) is activated by p-amino-phenyl-mercuric acetate (APMA) at 1 mM for 2.5 h, 35° C. The activated enzyme can be used to monitor activity of substrates as follows: MMP8 (200 ng/ml final concentration) is incubated for 90 minutes at 35° C.
# [2] = target: T2, MMP1 (Homo sapiens, UniProt P03956); assay type: biochemical
# T2 sequence (P03956 100-469): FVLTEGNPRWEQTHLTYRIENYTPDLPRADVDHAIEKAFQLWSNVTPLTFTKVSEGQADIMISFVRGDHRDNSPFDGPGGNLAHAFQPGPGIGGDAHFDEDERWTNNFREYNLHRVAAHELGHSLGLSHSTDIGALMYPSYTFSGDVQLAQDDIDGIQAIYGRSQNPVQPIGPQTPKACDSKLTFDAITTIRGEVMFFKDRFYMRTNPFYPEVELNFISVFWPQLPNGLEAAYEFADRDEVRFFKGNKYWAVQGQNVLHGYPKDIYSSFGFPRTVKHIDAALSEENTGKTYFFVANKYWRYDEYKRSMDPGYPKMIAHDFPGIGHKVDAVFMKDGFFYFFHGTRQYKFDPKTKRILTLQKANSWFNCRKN
# Text: (§1) In order to confirm the specificity of the substrates for various MMPs, standard enzymatic assays were adapted to monitor the release of reporter. The reporter was either analysed by a LC-MS method as described in Example 3a, or by a LC-UV method as described in Example 4. A protocol for testing against other matrix metalloproteinases, including MMP9, using expressed and purified pro MMP is described, for instance, by C.
# [3] = target: MMP3 (Homo sapiens, UniProt P08254); assay type: biochemical
# Chain of MMP3 (P08254 100-477): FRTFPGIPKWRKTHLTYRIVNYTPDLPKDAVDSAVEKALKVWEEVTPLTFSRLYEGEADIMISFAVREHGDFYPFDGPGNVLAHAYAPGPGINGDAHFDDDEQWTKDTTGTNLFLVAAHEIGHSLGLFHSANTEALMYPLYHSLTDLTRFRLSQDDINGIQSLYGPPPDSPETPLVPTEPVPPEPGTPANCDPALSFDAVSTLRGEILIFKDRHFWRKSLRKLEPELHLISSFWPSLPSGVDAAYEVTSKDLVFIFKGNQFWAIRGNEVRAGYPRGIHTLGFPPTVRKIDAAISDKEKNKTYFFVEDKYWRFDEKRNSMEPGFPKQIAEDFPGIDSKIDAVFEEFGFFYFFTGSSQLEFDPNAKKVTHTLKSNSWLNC
# Text: as §1
# [4] = system: MMP19; assay type: biochemical, human; conditions: 30 μM substrate; MMP Conc. 19 nM; AZL0095
# Text: (§2) In order to confirm the specificity of the substrates for various MMPs, standard enzymatic assays were adapted to monitor the release of reporter. The reporter was either analysed by a LC-MS method as described in Example 3a, or by a LC-UV method as described in Example 4.
# Recombinant human MMP19 catalytic domain may be expressed and purified as described by Parkar A. A. et al, (2000), Protein Expression and Purification, 20:152. The purified enzyme can be used to monitor activity of substrates as follows: MMP19 (40 ng/ml […]) in assay buffer (0.1M “Tris-HCl” (trade mark) buffer, pH 7.3 containing 0.1M NaCl, 20 mM CaCl2, 0.020 mM ZnCl and 0.05% (w/v) “Brij 35” (trade mark) detergent) in the presence or absence of inhibitors. Activity is determined by measuring the release of reporter 4-nitroaniline by the using the method in Example 3a.
# [5] = system: MMP9; assay type: biochemical, human
# Text: as §2, with “4. […] The enzyme can be used to monitor activity of substrates as follows: […]” for “4.”
# [6] = target: MMP16 (Homo sapiens, UniProt P51512); assay type: biochemical; conditions: 30 μM substrate; MMP Conc. 4.3 nM; Calbiochem #475939
# Chain of MMP16 (P51512 120-607): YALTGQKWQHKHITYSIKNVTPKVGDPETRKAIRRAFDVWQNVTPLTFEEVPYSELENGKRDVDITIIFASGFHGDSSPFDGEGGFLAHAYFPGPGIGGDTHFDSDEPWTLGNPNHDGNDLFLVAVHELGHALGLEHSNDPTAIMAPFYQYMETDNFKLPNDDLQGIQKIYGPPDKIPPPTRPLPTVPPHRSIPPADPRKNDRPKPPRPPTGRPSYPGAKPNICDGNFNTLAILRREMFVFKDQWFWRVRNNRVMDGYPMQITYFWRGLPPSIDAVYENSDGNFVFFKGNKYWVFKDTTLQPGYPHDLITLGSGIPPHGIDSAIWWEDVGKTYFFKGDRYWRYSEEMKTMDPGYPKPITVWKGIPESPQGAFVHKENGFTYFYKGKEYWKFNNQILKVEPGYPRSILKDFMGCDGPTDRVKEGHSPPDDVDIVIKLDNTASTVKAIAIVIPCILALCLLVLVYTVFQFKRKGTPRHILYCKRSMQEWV
# Text: as §2
# (§3) A protocol for testing against other matrix metalloproteinases, including MMP9, using expressed and purified pro MMP is described, for instance, by C. Graham Knight et al., (1992) FEBS Lett., 296(3), 263-266.
# [7] = target: MMP13 (Homo sapiens, UniProt P45452); assay type: biochemical; conditions: 30 μM substrate; MMP Conc. 1.2 nM; AZAP0.5 mg/ml
# Text: as §2, §3
# [8] = target: T3, MMP2 (Homo sapiens, UniProt P08253); assay type: biochemical; conditions: 30 μM substrate; MMP Conc. 0.71 nM; Chemicon #CC071
# T3 sequence (P08253 110-660): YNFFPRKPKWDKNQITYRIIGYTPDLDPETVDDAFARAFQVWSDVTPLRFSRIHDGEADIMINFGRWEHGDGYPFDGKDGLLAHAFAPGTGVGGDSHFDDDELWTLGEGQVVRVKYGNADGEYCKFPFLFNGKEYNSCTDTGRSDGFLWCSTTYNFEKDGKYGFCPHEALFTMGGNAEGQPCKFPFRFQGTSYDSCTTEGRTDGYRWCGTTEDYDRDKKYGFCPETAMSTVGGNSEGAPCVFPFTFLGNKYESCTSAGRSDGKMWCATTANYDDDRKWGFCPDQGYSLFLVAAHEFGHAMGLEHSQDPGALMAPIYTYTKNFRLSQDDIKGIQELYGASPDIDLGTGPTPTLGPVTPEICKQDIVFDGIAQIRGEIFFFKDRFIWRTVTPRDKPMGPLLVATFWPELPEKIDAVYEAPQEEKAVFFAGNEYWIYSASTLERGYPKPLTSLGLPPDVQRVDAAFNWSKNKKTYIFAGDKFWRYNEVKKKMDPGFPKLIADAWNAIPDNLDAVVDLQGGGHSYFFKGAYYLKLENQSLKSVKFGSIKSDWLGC
# Text: as §2, §3
# [9] = system: MMP14; assay type: biochemical, human; conditions: 30 μM substrate; MMP Conc. 4.8 nM; AZL0078
# Text: as §2
# Recombinant human MMP14 catalytic domain may be expressed and purified as described by Parkar A. A. et al, (2000), Protein Expression and Purification, 20, 152. The purified enzyme can be used to monitor activity of substrates as follows: MMP14 (10 ng/ml final […]) in assay buffer (0.1M “Tris-HCl” (trade mark) buffer, pH 7.5 containing 0.1M NaCl, 20 mM CaCl2, 0.020 mM ZnCl and 0.05% (w/v) “Brij 35” (trade mark) detergent) in the presence or absence of inhibitors. Activity is determined by measuring the release of reporter 4-nitroaniline by the using the method in Example 3a.
# T1 sequence (P22894 101-467): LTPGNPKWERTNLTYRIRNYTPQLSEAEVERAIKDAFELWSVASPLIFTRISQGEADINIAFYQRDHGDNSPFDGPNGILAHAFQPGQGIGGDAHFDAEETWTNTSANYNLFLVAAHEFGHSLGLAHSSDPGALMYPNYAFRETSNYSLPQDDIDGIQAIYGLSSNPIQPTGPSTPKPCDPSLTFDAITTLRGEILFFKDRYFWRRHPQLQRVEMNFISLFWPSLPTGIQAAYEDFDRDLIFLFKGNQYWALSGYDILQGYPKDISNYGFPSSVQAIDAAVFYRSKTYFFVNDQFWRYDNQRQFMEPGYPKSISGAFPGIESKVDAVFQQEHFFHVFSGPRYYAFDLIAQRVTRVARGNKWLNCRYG
smiles,measurement,setting,value
"COC(=O)CCNC(=O)[C@H](CC(C)C)NC(=O)[C@@H](NC(=O)CNC(=O)[C@H](CC(C)C)NC(=O)[C@@H]1CCCN1C(C)=O)Nc1ccc([N+](=O)[O-])cc1 [Example 1.1, Methyl 1-acetyl-L-prolyl-L-leucylglycyl-α-R-(4-nitrophenylamino)-glycyl-L-leucyl-β-alaninate]",Activity,"[1]; 30 μM substrate, MMP Conc. 2.7 nM, Calbiochem #444229",1.1 units/s
same,Activity of selected substrates with MMPs,"[1]; Table 1b, MMP8",120.4 units/s (molRXH/molEnz * s)
same,Activity,"[2]; 30 μM substrate, MMP Conc. 9.3 nM, Calbiochem #444208",0.16 units/s
same,Activity of selected substrates with MMPs,"[2]; Table 1b, MMP1",26.1 units/s (molRXH/molEnz * s)
same,Activity,"[3]; 30 μM substrate, MMP Conc. 19 nM, AZL0095",0.048 units/s
same,Activity of selected substrates with MMPs,"[3]; Table 1b, MMP3",3.8 units/s (molRXH/molEnz * s)
same,Activity,[4],0.13 units/s
same,Activity,"[5]; 30 μM substrate, MMP Conc. 0.27 nM, AZL0064",7.4 units/s
same,Activity of selected substrates with MMPs,"[5]; Table 1b, MMP9",62.9 units/s (molRXH/molEnz * s)
same,Activity,[6],1.4 units/s
same,Activity,[7],1.9 units/s
same,Activity,[8],2.3 units/s
same,Activity,[9],1.0 units/s

# Source: patent publication US20100021940A1, “Method for Determining the Activity of a Protease in a Sample” (ASTRAZENECA AB, priority 2006, published 2010)
